Test results published in the supplement of paper PMC11208160.

assay: recombinant barcode read abundance after kanamycin selection (control-corrected) (log10(CPM+1)); higher = more efficient recombination; sequences stand for … in AGTGCAGAGAAAATCGGCCAGTTTTCTCTGCCTGCAGTCCGCATGCCGT…AGATTTATGCAGCGGACTGCCTTTCTCCCAAAGTGATAAACCGGACAGTATCATGGACCGGTTTTCCCGGTAATCCGTATTTGCAAGGTTGGTTTCACT; site = the 11-nt target
Procedure: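 Pooled E. coli target-specificity screen for the IS621 bridge recombinase. Each library plasmid pairs an 11-nt target (CT core) with a bridge RNA whose target-binding loop (9-nt LTG + 4-nt RTG) is reprogrammed; the rest of the 177-nt WT IS621 bridge RNA scaffold is fixed. The plasmid is co-electroporated with a WT donor plasmid; recombinase is induced with 0.1 mM IPTG and recombinants are selected on kanamycin. Recombinant barcodes are sequenced, converted to CPM, averaged over two biological replicates and corrected by the unselected control CPM. Molecule = full bridge RNA written as DNA: LTG = specificity nt 1-9, RTG = reverse complement of specificity nt 8-11, in the WT scaffold.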
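Also: IS621 recombinase and bridge RNA in Escherichia coli cells.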

In order of rising “recombinant barcode read abundance (log10)” value:
1. AACATTCCTTGGGTTCTAACCTGTTGCCT (site CACATTCCTAG)  0
2. AACTATCCTTGGGTTCTAACCTGTTGCAT (site AACTGTCCTAT)  0.00638
3. AACGAGTCTTGGGTTCTAACCTGTTGCCT (site AGCGAGTCTAG)  0.0187
4. AACCTTACTTGGGTTCTAACCTGTTGCCT (site ATCCTTACTAG)  0.0245
5. AACAGGGCTTGGGTTCTAACCTGTTGCCG (site TGGCATCCTAC)  0.0251
6. AAGAGCACTTGGGTTCTAACCTGTTGCCT (site CAGAGCACTAG)  0.0257
7. AACATTCCTTGGGTTCTAACCTGTTGCCT (site TACATTCCTAG)  0.0261
8. AACCTTACTTGGGTTCTAACCTGTTGCCT (site AGCCTTACTAG)  0.0388
9. AAGACAACTTGGGTTCTAACCTGTTGCGG (site TGCCTGCCTAG)  0.042
10. AACAGGTCTTGGGTTCTAACCTGTTGCCT (site ATCAGGTCTAG)  0.0485
11. AACAGGTCTTGGGTTCTAACCTGTTGCCT (site AGCAGGTCTAG)  0.0529
12. AACCATCCTTGGGTTCTAACCTGTTGCCT (site AACCAGCCTAG)  0.0589
13. AAGACTCCTTGGGTTCTAACCTGTTGCCT (site AAGTCTCCTAG)  0.0612
14. AACTAAACTTGGGTTCTAACCTGTTGCCT (site AACTCAACTAG)  0.0768
15. AACTAAACTTGGGTTCTAACCTGTTGCCT (site AACTTAACTAG)  0.0783
16. AAGAGCACTTGGGTTCTAACCTGTTGCCT (site GAGAGCACTAG)  0.0862
17. AACTATCCTTGGGTTCTAACCTGTTGCAT (site AACTCTCCTAT)  0.109
18. AACCTTACTTGGGTTCTAACCTGTTGCCT (site ACCCTTACTAG)  0.122
19. AAGATAGCTTGGGTTCTAACCTGTTGCCT (site AAGACAGCTAG)  0.147
20. AACATTCCTTGGGTTCTAACCTGTTGCCT (site AACATTCCTAG)  0.151
21. AACGAGTCTTGGGTTCTAACCTGTTGCCT (site ACCGAGTCTAG)  0.152
22. AACAGGTCTTGGGTTCTAACCTGTTGCCT (site ACCAGGTCTAG)  0.175
23. AACTAAACTTGGGTTCTAACCTGTTGCCT (site AACTGAACTAG)  0.181
24. AAGATAGCTTGGGTTCTAACCTGTTGCCT (site AAGAAAGCTAG)  0.192
25. AACTATCCTTGGGTTCTAACCTGTTGCAT (site AACTTTCCTAT)  0.196
26. AACTATCCTTGGGTTCTAACCTGTTGCAT (site AACTATCCTAT)  0.227
27. AACGAGTCTTGGGTTCTAACCTGTTGCCT (site ATCGAGTCTAG)  0.244
28. AAGAGCACTTGGGTTCTAACCTGTTGCCT (site TAGAGCACTAG)  0.315
29. AACATTCCTTGGGTTCTAACCTGTTGCCT (site GACATTCCTAG)  0.355
30. AACATTGCTTGGGTTCTAACCTGTTGCCT (site AACAGTGCTAG)  0.372
31. AACCTTACTTGGGTTCTAACCTGTTGCCT (site AACCTTACTAG)  0.631
32. AACATTGCTTGGGTTCTAACCTGTTGCCT (site AACACTGCTAG)  0.695
33. AACATTGCTTGGGTTCTAACCTGTTGCCT (site AACAATGCTAG)  0.765
34. AAGACTCCTTGGGTTCTAACCTGTTGCCT (site AAGACTCCTAG)  0.824
35. AACAGGTCTTGGGTTCTAACCTGTTGCCT (site AACAGGTCTAG)  0.902
36. AACATTGCTTGGGTTCTAACCTGTTGCCT (site AACATTGCTAG)  0.979
37. AACTAAACTTGGGTTCTAACCTGTTGCCT (site AACTAAACTAG)  1.02
38. AACGAGTCTTGGGTTCTAACCTGTTGCCT (site AACGAGTCTAG)  1.03
39. AAGAGCACTTGGGTTCTAACCTGTTGCCT (site AAGAGCACTAG)  1.17
40. AACCATCCTTGGGTTCTAACCTGTTGCCT (site AACCATCCTAG)  1.51
41. AAGACAACTTGGGTTCTAACCTGTTGCGG (site AAGACAACTCC)  1.64
